Assay results reported in article PMC4736845, “Structural comparison between the open and closed forms of citrate synthase from Thermus thermophilus HB8” (Biophysics and Physicobiology, 2015).

Target: T1, TtCS (citrate synthase from Thermus thermophilus HB8) (Thermus thermophilus, UniProt Q5SIM6)
T1 construct: gene TTHA1343; recombinant, E. coli BL21(DE3) pET-3a; no tag stated; 377 residues, Mr 42,304 per subunit; homodimer
T1 sequence (Q5SIM6 1-377): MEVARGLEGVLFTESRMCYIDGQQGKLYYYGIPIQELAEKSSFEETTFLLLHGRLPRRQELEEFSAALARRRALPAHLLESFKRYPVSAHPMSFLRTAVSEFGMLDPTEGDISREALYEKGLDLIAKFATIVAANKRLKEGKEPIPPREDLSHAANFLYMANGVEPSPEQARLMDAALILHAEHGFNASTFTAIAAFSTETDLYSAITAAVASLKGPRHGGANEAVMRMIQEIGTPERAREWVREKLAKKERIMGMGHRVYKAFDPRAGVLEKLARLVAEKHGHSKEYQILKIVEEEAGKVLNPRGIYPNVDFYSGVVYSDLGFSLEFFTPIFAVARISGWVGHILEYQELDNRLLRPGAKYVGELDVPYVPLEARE
Assay: X-ray crystal structure, […] Å, co-crystallised
Assay type: binding
Settings: closed forms (fully and partially closed)

O=C(O)CC(O)(CC(=O)O)C(=O)O [citrate]
X-ray crystal structure, 2.3 Å, co-crystallised (ternary complex with CoA, 10 mM Na-citrate, 10 mM CoA, 100 mM KCl, then 1.5 M lithium sulfate, 100 mM Na-citrate pH 5.8, 20°C, active site): Citrate is bound deep in the cleft of the active site by hydrogen bonds

CC(C)(COP(=O)(O)OP(=O)(O)OC[C@H]1O[C@@H](n2cnc3c(N)ncnc32)[C@H](O)[C@@H]1OP(=O)(O)O)[C@@H](O)C(=O)NCCC(=O)NCCS [CoA]
X-ray crystal structure, 2.3 Å, co-crystallised (ternary complex with citrate, same crystallisation, active site just above citrate): CoA is bound at the upper part of the active site just above the citrate-binding site
